Test [1] in a line: Inhibition of hydrogen potassium ATPase in goat stomach mucosal membrane assessed as decrease in inorganic phosphate production using ATP as substrate after 10 to 15 mins by spectrophotometric analysis. The class given is cell membranes, Capra hircus.
The subject of test [2] is Erythrocyte. The experiment in a line: Anti-inflammatory activity in human RBC assessed as membrane stabilization. The class given is functional, cell-based.
The species named for the next test is Capra hircus. Description: Inhibition of hydrogen potassium ATPase in goat stomach mucosal membrane assessed as decrease in inorganic phosphate production using ATP as substrate after 10 to 15 mins by spectrophotometric analysis relative to omeprazole. The test is classed as cell membranes. On the set-up: concentration or dose not given beside the values.
Test [3] deals with Erythrocyte. Description: Anti-inflammatory activity in human RBC assessed as membrane stabilization relative to control. The test is classed as functional. On the set-up: concentration or dose not given beside the values.

A word on the IC50: it is the midpoint of a concentration-inhibition curve. What is called Ki is the dissociation constant of the complex between target and ligand, obtained from inhibition or displacement. Broadly, the inhibition is the share of the control response that was lost under treatment. As for `COCCCOc1ccnc(COc2ccc(CS(=O)(=O)c3nc4cc(OC(F)F)ccc4[nH]3)cc2OC)c1C`, the half-maximal inhibitory concentration (IC50) in test [1] turned out to be 0.124 µM; in the test on Erythrocyte [2], 0.142 µM. Further, in test [1], the inhibitory constant (Ki) is 0.025 to 1.24 µM. In the test filed under Capra hircus, the inhibition was 96.3%. Besides, the Activity with Erythrocyte [3] turned out to be 96.42%.
Consider `COc1ccc2[nH]c([S+]([O-])Cc3ncc(C)c(OC)c3C)nc2c1` (centres undefined) [OMEPRAZOLE], for which the IC50 in test [1] is 0.98 to 1.01 µM. In addition, the inhibition in the test listed under Capra hircus is 82.1%.
Take `O=C(O)Cc1ccccc1Nc1c(Cl)cccc1Cl` [DICLOFENAC]: the IC50 in the test on Erythrocyte [2] is 0.942 µM. Moreover, in the test with Erythrocyte [3], the Activity turned out to be 82.24%.
For the compound `COc1cc(CS(=O)(=O)c2nc3ccccc3[nH]2)ccc1OCc1nccc(OCC(F)(F)F)c1C`, in test [1], the IC50 was found to be 1.29 µM and the inhibition constant Ki was 0.025 to 1.24 µM. The half-maximal inhibitory concentration (IC50) with Erythrocyte [2] worked out at 1.31 µM. The inhibition in the test listed under Capra hircus was 74.9%. Besides, the Activity in the test with Erythrocyte [3] was found to be 74.21%.
For `COCCCOc1ccnc(COc2ccc(CS(=O)(=O)c3nc4cc(OC)ccc4[nH]3)cc2OC)c1C` the same measures were 0.814 µM, 0.025 to 1.24 µM, 0.817 µM, 80.2% and 79.41%.
The matching figures for `COc1ccc2[nH]c(S(=O)(=O)Cc3ccc(OCc4nccc(OCC(F)(F)F)c4C)c(OC)c3)nc2c1`: 1.46 µM, 0.025 to 1.24 µM, 1.76 µM, 72% and 71.58%.
Consider `COc1cc(CS(=O)(=O)c2nc3cc(OC(F)F)ccc3[nH]2)ccc1OCc1nccc(OCC(F)(F)F)c1C`, for which the results for the half-inhibitory concentration (IC50) (in test [1]; with Erythrocyte [2]) were 1.66 µM and 1.88 µM, respectively. Besides, in test [1], the inhibitory constant (Ki) was in the range of 0.025 to 1.24 µM. For the same compound, the inhibition in the test listed under Capra hircus was 70.6%. Besides, the Activity in the test on Erythrocyte [3] came to 70.28%.
The matching figures for `COc1cc(CS(=O)(=O)c2nc3ccccc3[nH]2)ccc1OCc1nccc(OC)c1OC`: 0.228 µM, 0.212 µM, 0.025 to 1.24 µM, 92% and 91.12%.
On to `COc1cc(CS(=O)(=O)c2nc3cc(OC(F)F)ccc3[nH]2)ccc1OCc1nccc(OC)c1OC`, for which the IC50 in test [1] was 0.198 µM; in the test on Erythrocyte [2], 0.186 µM. The inhibition constant (Ki) in test [1] was in the range of 0.025 to 1.24 µM. The inhibition in the test filed under Capra hircus amounted to 94.4%. Further, the Activity with Erythrocyte [3] was found to be 94.11%.
For `COc1ccc2[nH]c(S(=O)(=O)Cc3ccc(OCc4ncc(C)c(OC)c4C)c(OC)c3)nc2c1` the same measures were 1.15 µM, 1.21 µM, 0.025 to 1.24 µM, 76.3% and 76.23%.
As for `COc1cc(CS(=O)(=O)c2nc3ccccc3[nH]2)ccc1OCc1ncc(C)c(OC)c1C`, the half-maximal inhibitory concentration (IC50) was found to be 1.68 µM in test [1] and 1.82 µM with Erythrocyte [2]. The Ki in test [1] was in the range of 0.025 to 1.24 µM. In the test listed under Capra hircus, the inhibition was 70.5%. Besides, the Activity in the test on Erythrocyte [3] is reported as 70.41%.
The matching figures for `COCCCOc1ccnc(COc2ccc(CS(=O)(=O)c3nc4ccccc4[nH]3)cc2OC)c1C`: 0.355 µM, 0.355 µM, 0.025 to 1.24 µM, 81% and 88.45%.
The matching figures for `COc1cc(CS(=O)(=O)c2nc3cc(OC(F)F)ccc3[nH]2)ccc1OCc1ncc(C)c(OC)c1C`: 1.35 µM, 1.42 µM, 0.025 to 1.24 µM, 73.2% and 73.56%.
As to `COc1ccc2[nH]c(S(=O)(=O)Cc3ccc(OCc4nccc(OC)c4OC)c(OC)c3)nc2c1`, in test [1], the IC50 was 0.918 µM and the Ki was 0.025 to 1.24 µM. Also, in the test with Erythrocyte [2], the IC50 stood at 0.898 µM. Also, in the test listed under Capra hircus, the inhibition came to 78.2%. Further, in the test on Erythrocyte [3], the Activity is 78.42%.
